ChEMBL document CHEMBL5518187, “EGCG-like non-competitive inhibitor of DYRK1A rescues cognitive defect in a down syndrome model” (Eur J Med Chem, 2024)
pIC50: −log10 of the molar value. The source made the active and inactive calls. The rule behind the calls is not given here.

Key:
[1] = biological target: Dual specificity tyrosine-phosphorylation-regulated kinase 1A (Homo sapiens, UniProt Q13627); experiment: Inhibition of DYRK1A (unknown origin) using KISGRLSPIMTEQ as substrate incubated for 30 mins in presence of ATP by UFLC-based fluorimetric analysis
[2] = tested on: Mus musculus; experiment: Effect on spatial working memory in Dp1Yey C57BL/6J mouse model assessed as reduction in total distance travelled at 40 mg/kg, po administered 5 days per week for 2 months by Y-maze test; assay type: functional, organism-based
[3] = tested on: Mus musculus; experiment: Cognitive enhancing effect in Dp1Yey C57BL/6J mouse model assessed as increase in percentage of spontaneous alternation at 40 mg/kg, po administered 5 days per week for 2 months by Y-maze test; assay type: functional, organism-based
[4] = Drug concentration in brain of Dp1Yey C57BL/6J mouse model at 50 mg/kg by UHPLC-MS/MS analysis; assay type: ADME, organism-based; details: in vivo, read-out: Ct
[5] = tested on: Mus musculus; experiment: In vivo inhibition of DYRK1A in C57BL/6J mouse model carrying murine BACtgDyrk1a assessed as decrease in phosphorylated ERK to ERK ratio in brain administered intraperitoneally and measured after 24 hrs; assay type: functional; details: route ip
[6] = Stability in human plasma at 1 uM incubated for 120 mins by LC-MS/MS analysis; assay type: ADME, cell-free; details: 2 h
[7] = biological target: Glycogen synthase kinase-3 beta (Homo sapiens) (UniProt P49841); experiment: Inhibition of GSK3beta (unknown origin) at 0.5 uM
[8] = species: Homo sapiens; experiment: Inhibition of PI3K (unknown origin) at 0.5 uM
[9] = tested on: Mus musculus; experiment: Effect on spatial working memory in Dp1Yey C57BL/6J mouse model assessed as reduction in mean speed at 40 mg/kg, po administered 5 days per week for 2 months by Y-maze test; assay type: functional, organism-based
[10] = biological target: Tyrosine-protein kinase Fyn (Homo sapiens) (UniProt P06241); experiment: Inhibition of FYN (unknown origin) at 0.5 uM
[11] = biological target: Mitogen-activated protein kinase 1 (Homo sapiens) (UniProt P28482); experiment: Inhibition of ERK2 (unknown origin) at 0.5 uM
[12] = Drug concentration in wildtype mouse brain at 50 mg/kg by UHPLC-MS/MS analysis; assay type: ADME, organism-based; details: in vivo, read-out: Ct
[13] = biological target: Mitogen-activated protein kinase 3 (Homo sapiens) (UniProt P27361); experiment: Inhibition of ERK1 (unknown origin) at 0.5 uM
[14] = tested on: Mus musculus; experiment: Effect on spatial working memory in Dp1Yey C57BL/6J mouse model assessed as reduction in time spent in center at 40 mg/kg, po administered 5 days per week for 2 months by Y-maze test; assay type: functional, organism-based
[15] = biological target: Dual specificity tyrosine-phosphorylation-regulated kinase 1A (Rattus norvegicus, UniProt Q63470); experiment: Inhibition of recombinant 6His-tagged rat DYRK1A (1 to 502 residues) expressed in Escherichia coli BL21 (DE3) cells using KISGRLSPIMTEQ as substrate incubated for 30 mins in presence of ATP by absorbance based assay

Chain of Glycogen synthase kinase-3 beta (Homo sapiens) (P49841 whole entry, looked up): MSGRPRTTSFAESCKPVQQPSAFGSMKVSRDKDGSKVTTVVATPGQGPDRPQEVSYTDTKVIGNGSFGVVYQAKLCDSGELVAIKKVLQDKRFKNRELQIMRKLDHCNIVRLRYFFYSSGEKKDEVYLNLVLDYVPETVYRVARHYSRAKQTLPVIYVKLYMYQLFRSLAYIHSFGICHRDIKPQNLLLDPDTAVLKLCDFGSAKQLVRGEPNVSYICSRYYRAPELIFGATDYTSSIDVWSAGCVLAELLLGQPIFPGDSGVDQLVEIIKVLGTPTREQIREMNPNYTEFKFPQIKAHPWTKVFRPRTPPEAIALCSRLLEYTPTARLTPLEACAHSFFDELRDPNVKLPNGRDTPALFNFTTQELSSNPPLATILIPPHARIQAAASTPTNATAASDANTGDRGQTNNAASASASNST
Chain of Mitogen-activated protein kinase 3 (Homo sapiens) (P27361 whole entry): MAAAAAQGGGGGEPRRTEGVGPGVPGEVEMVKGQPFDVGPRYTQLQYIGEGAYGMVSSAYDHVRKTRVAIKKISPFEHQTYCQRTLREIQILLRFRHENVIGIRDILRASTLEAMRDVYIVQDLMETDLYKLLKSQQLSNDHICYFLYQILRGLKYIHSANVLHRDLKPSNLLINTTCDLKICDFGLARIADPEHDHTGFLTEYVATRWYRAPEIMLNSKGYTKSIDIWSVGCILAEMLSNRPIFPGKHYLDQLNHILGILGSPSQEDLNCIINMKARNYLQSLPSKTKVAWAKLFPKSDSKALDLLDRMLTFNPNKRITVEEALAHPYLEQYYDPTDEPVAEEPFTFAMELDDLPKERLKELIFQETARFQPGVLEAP
Chain of Tyrosine-protein kinase Fyn (Homo sapiens) (P06241 2-537 limits assumed): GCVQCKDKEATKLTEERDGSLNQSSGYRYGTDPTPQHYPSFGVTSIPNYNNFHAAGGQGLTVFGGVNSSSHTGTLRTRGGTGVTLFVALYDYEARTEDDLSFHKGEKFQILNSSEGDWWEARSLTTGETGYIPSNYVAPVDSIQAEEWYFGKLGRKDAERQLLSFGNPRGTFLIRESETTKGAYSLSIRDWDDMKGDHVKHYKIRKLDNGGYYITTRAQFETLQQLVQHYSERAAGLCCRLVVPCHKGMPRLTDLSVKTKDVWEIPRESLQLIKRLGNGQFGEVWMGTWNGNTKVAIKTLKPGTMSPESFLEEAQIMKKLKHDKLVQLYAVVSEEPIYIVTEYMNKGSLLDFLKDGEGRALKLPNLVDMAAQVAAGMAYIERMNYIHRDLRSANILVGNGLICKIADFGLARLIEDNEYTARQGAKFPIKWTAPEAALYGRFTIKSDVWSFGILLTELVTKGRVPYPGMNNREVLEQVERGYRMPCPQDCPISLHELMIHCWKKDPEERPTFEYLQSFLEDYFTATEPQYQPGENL
Chain of Mitogen-activated protein kinase 1 (Homo sapiens) (P28482 whole entry): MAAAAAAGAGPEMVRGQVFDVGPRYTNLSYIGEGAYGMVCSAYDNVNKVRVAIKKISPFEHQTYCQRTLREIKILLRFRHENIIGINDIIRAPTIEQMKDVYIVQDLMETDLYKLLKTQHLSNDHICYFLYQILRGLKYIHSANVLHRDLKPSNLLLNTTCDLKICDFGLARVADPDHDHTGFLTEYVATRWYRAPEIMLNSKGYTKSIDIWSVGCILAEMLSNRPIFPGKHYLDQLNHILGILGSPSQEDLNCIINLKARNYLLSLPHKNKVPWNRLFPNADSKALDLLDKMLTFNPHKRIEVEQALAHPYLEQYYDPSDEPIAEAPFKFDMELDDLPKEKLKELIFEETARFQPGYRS

For `COc1cccc(C(=O)N2Cc3c(cc(OC)cc3OC)CC2c2cc(OC)c(OC)c(OC)c2)c1` (stereo not given), the pIC50 [1] was < 4.70.

Work on `O=C(O[C@@H]1Cc2c(O)cc(O)cc2O[C@@H]1c1cc(O)c(O)c(O)c1)c1cc(O)c(O)c(O)c1` [EPIGALOCATECHIN GALLATE] yielded a pIC50 [1] of 6.70.

In the case of `O=C(c1ccccc1)N1Cc2c(O)cc(O)cc2CC1C1CCCCC1` (stereo not given), the pIC50 [1] was < 4.70.

With `O=C(c1ccc(O)cc1)N1Cc2c(O)cc(O)cc2CC1C1CCCCC1` (stereo not given) the pIC50 [1] was < 4.70.

With `COc1ccc(C(=O)N2Cc3c(cc(OC)cc3OC)CC2C2CCCCC2)cc1` (stereo not given) the pIC50 [1] was < 4.70.

In the case of `O=C(c1cc(O)c(O)c(O)c1)N1Cc2c(O)cc(O)cc2CC1c1cc(O)c(O)c(O)c1` (stereo not given), the Activity [2] was “inactive”, the Activity [3] was “Active” and the concentration [4] was 27.6 nM. For the same compound, the inhibition [5] was “Active”, the Stability [6] was “Stable” and the inhibition [7] was “inactive”. For the same compound, the inhibition [8] was “Active”, the Activity [9] was “inactive” and the inhibition [10] was “Active”. For the same compound, the inhibition [11] was “inactive”, the concentration [12] was 38.2 nM and the inhibition [13] was “inactive”. The Activity [14] was “inactive”.

For `Oc1cc(O)c2c(c1)CC(c1ccccc1)NC2` (stereo not given), the pIC50 [1] was < 4.70.

For `COc1cc2c(c(OC)c1)CN(C(=O)c1ccccc1)C(C1CCCCC1)C2` (stereo not given), the pIC50 [1] was < 4.70.

For `Oc1cc(O)c2c(c1)CC(C1CCCCC1)NC2` (stereo not given), the pIC50 [1] was < 4.70.

For `COc1cc2c(c(OC)c1)CNC(C1CCCCC1)C2` (stereo not given), the pIC50 [1] was < 4.70.

With `COc1cc2c(c(OC)c1)CN(C(=O)c1ccccc1)C(c1cc(OC)c(OC)c(OC)c1)C2` (stereo not given) the pIC50 [1] was < 4.70.

Work on `Oc1ccc(-c2cnc3[nH]cc(-c4ccc(F)cc4)c3c2)cc1O` yielded a pIC50 [15] of 7.70.

In the case of `COc1cc2c(c(OC)c1)CNC(c1ccccc1)C2` (stereo not given), the pIC50 [1] was < 4.70.
